Drawing on US4264774A, “2-Thiophenesulfonyl bromides” (The Dow Chemical Company, priority 1976, dated 1981), this text covers MIC and inhibition for 16 compounds.

Type in all cases: cell-based
The test system of assay [1] is S. aureus. In words: in vitro agar Petri dish dilution test, Sa. As to conditions: Staphylococcus aureus, 100% inhibition. The source says:
(§1) The compounds of this invention have antimicrobial utility. In conventional in vitro agar Petri dish dilution tests, the following compounds and some corresponding art compounds gave 100% inhibition of the following organisms at the indicated concentrations in parts per million.

For another assay, the system named is C. albicans. In words: in vitro agar Petri dish dilution test, Ca. As to conditions: Candida albicans, 100% inhibition.
Excerpt: as §1

The next assay concerns T. mentagrophytes. The assay can be described thus: in vitro agar Petri dish dilution test, Tm. As to conditions: Trichophyton mentagrophytes, 100% inhibition.
Excerpt: as §1
Tm = T. mentagrophytes -

Another assay relates to A. niger. The assay can be described thus: in vitro agar Petri dish dilution test, An. The following applies: Aspergillus niger, 100% inhibition.
Excerpt: as §1

The subject of assay [2] is B. subtilis. In words: in vitro agar Petri dish dilution test, Bs. The following applies: Bacillus subtilis, 100% inhibition.
Excerpt: as §1

The test system of the next assay is A. aerogenes. In words: in vitro agar Petri dish dilution test, Aa. The following applies: Klebsiella aerogenes, 100% inhibition.
Excerpt: as §1

The test system of assay [3] is C. pelliculosa. In words: in vitro agar Petri dish dilution test, Cp. As to conditions: Hansenula anomala, 100% inhibition.
Excerpt: as §1

A further assay has as its system P. pullulans. In words: in vitro agar Petri dish dilution test, Pp. The following applies: 100% inhibition.
Excerpt: as §1

Assay [4] concerns Pseudomonas Sp. Strain 10. The assay can be described thus: in vitro agar Petri dish dilution test, Ps 10. As to conditions: 100% inhibition.
Excerpt: as §1
Ps 10 = Pseudomonas Sp. Strain 10

The test system of a further assay is T. Sp. Madison P42. The assay can be described thus: in vitro agar Petri dish dilution test, Tr 42. The following applies: 100% inhibition.
Excerpt: as §1
Tr 42 = T. Sp. Madison P42

The subject of the next assay is S. typhosa. In words: in vitro agar Petri dish dilution test, St. The following applies: for MIC: 100% inhibition.
Excerpt: as §1

A further assay relates to C. IPS. The assay can be described thus: in vitro agar Petri dish dilution test, CI. As to conditions: 100% inhibition.
Excerpt: as §1

In the next assay the test system is E. coli. The assay can be described thus: in vitro agar Petri dish dilution test, Ec. The following applies: Escherichia coli, 100% inhibition.
Excerpt: as §1

The subject of another assay is M. phlei. In words: in vitro agar Petri dish dilution test, Mp. The following applies: Mycolicibacterium phlei, 100% inhibition.
Excerpt: as §1

In the next assay the test system is R. nigricans. The assay can be described thus: in vitro agar Petri dish dilution test, Rn. As to conditions: Rhizopus stolonifer, 100% inhibition.
Excerpt: as §1

For assay [5], the system named is S. aureus. The assay can be described thus: in vitro agar Petri dish dilution test, Sa. The following applies: Staphylococcus aureus.
Assay [6] relates to B. subtilis. In words: in vitro agar Petri dish dilution test, Bs. The following applies: Bacillus subtilis.
For assay [7], the system named is C. pelliculosa. In words: in vitro agar Petri dish dilution test, Cp. As to conditions: Hansenula anomala.

≈ marks a conversion by molar mass, not a printed value. Where only a bound is given, the exact number is not on record here.

As for `O=S(=O)(Cl)c1sc(Br)c(Br)c1Br` [3,4,5-Br3, reference compound], the MIC in the assay with S. aureus [1], with C. albicans, with T. mentagrophytes, against A. niger, in the assay on B. subtilis [2] and in the assay on A. aerogenes was more than 100 µg/mL each time. This compound registered a minimum inhibitory concentration (MIC) in the assay on C. pelliculosa [3] of more than 100 µg/mL.

As for `O=S(=O)(Br)c1sc(Br)c(Br)c1Br` [3,4,5-Br3], the minimal inhibitory concentration (MIC) was 50 µg/mL (≈ 108 µM) in the assay with S. aureus [1]; 100 µg/mL (≈ 216 µM) against C. albicans; 50 µg/mL (≈ 108 µM) in the assay on T. mentagrophytes; 50 µg/mL (≈ 108 µM) in the assay with A. niger; 50 µg/mL (≈ 108 µM) in the assay on B. subtilis [2]; more than 100 µg/mL with A. aerogenes. The MIC (in the assay with C. pelliculosa [3]; against P. pullulans; in [4]; in the assay with T. Sp. Madison P42) was 50 µg/mL (≈ 108 µM) each time.

Regarding `O=S(=O)(Cl)c1sc(Br)cc1Br` [3,5-Br2, reference compound], the MIC with S. aureus [1], against C. albicans, against T. mentagrophytes, in the assay with A. niger, in the assay with B. subtilis [2] and in the assay on A. aerogenes was more than 100 µg/mL throughout. In addition, the minimal inhibitory concentration (MIC) (in the assay with C. pelliculosa [3]; against P. pullulans; against S. typhosa; in assay [4]; with C. IPS; in the assay on T. Sp. Madison P42) was more than 100 µg/mL throughout.

With `O=S(=O)(Br)c1sc(Br)cc1Br` [3,5-Br2], the minimal inhibitory concentration (MIC) in the assay on S. aureus [1] stood at 50 µg/mL (≈ 130 µM); in the assay on C. albicans it was 100 µg/mL (≈ 260 µM); against T. mentagrophytes, 50 µg/mL (≈ 130 µM); against B. subtilis [2], 50 µg/mL (≈ 130 µM); in the assay with A. aerogenes it was 50 µg/mL (≈ 130 µM); in the assay with C. pelliculosa [3] it was 50 µg/mL (≈ 130 µM). The MIC with P. pullulans is 100 µg/mL (≈ 260 µM); against S. typhosa, 50 µg/mL (≈ 130 µM); in assay [4], 50 µg/mL (≈ 130 µM); with T. Sp. Madison P42, 100 µg/mL (≈ 260 µM).

In the case of `O=S(=O)(Cl)c1cc(Br)c(Br)s1` [4,5-Br2, reference compound], the MIC with S. aureus [1] was more than 100 µg/mL; against C. albicans it was more than 100 µg/mL; in the assay with T. mentagrophytes, 100 µg/mL (≈ 294 µM); against A. niger, more than 100 µg/mL; in the assay with B. subtilis [2] it was more than 100 µg/mL; against A. aerogenes, more than 100 µg/mL. The same compound returned a minimal inhibitory concentration (MIC) in the assay on C. pelliculosa [3] of 100 µg/mL (≈ 294 µM).

On to `O=S(=O)(Br)c1cc(Br)c(Br)s1` [4,5-Br2], for which the MIC against S. aureus [1] came out at 50 µg/mL (≈ 130 µM); against C. albicans, 100 µg/mL (≈ 260 µM); against T. mentagrophytes, 100 µg/mL (≈ 260 µM); in the assay on A. niger it was 100 µg/mL (≈ 260 µM); with B. subtilis [2], 50 µg/mL (≈ 130 µM); against A. aerogenes, 100 µg/mL (≈ 260 µM). The MIC in the assay on C. pelliculosa [3] worked out at 100 µg/mL (≈ 260 µM); in the assay with P. pullulans, 100 µg/mL (≈ 260 µM); in the assay on S. typhosa it was 50 µg/mL (≈ 130 µM); in assay [4] it was 50 µg/mL (≈ 130 µM); against T. Sp. Madison P42 it was 100 µg/mL (≈ 260 µM).

As to `O=S(=O)(Br)c1ccc(Br)s1` [5-Br, 5-Bromo-2-thiophenesulfonyl Bromide], the MIC was determined as 500 µg/mL with S. aureus [1]; 500 µg/mL in the assay with E. coli; 100 µg/mL against C. albicans; 100 µg/mL against T. mentagrophytes; 100 µg/mL against A. niger; 100 µg/mL in the assay with B. subtilis [2]. In addition, the minimum inhibitory concentration (MIC) against A. aerogenes was 500 µg/mL; against C. pelliculosa [3], 100 µg/mL; with P. pullulans, 100 µg/mL; in assay [4] it was 100 µg/mL; against M. phlei it was 500 µg/mL; in the assay on R. nigricans it was 100 µg/mL. This compound also yielded a minimum inhibitory concentration (MIC) against T. Sp. Madison P42 of 100 µg/mL.

As to `CCc1ccc(S(=O)(=O)Br)s1` [5-C2 H5], the minimal inhibitory concentration (MIC) in the assay with S. aureus [1] was determined as 500 µg/mL (≈ 1960 µM); in the assay on E. coli, 500 µg/mL (≈ 1960 µM); in the assay with C. albicans it was 500 µg/mL (≈ 1960 µM); against T. mentagrophytes, 100 µg/mL (≈ 392 µM); in the assay on A. niger it was 100 µg/mL (≈ 392 µM); in the assay with B. subtilis [2] it was 100 µg/mL (≈ 392 µM). The minimum inhibitory concentration (MIC) was found to be 500 µg/mL (≈ 1960 µM) in the assay on A. aerogenes; 100 µg/mL (≈ 392 µM) against C. pelliculosa [3]; 100 µg/mL (≈ 392 µM) against P. pullulans; 100 µg/mL (≈ 392 µM) in [4]; 100 µg/mL (≈ 392 µM) against R. nigricans; 100 µg/mL (≈ 392 µM) against T. Sp. Madison P42.

In turn, `CCc1ccc(S(=O)(=O)Cl)s1` [5-C2 H5] showed an inhibition at 500 ppm in the assay on S. typhosa of 50%.

Regarding `Cc1ccc(S(=O)(=O)Br)s1` [5-CH3], the MIC against S. aureus [1] was 100 µg/mL (≈ 415 µM); in the assay with C. albicans, more than 100 µg/mL; with T. mentagrophytes it was more than 100 µg/mL; against A. niger, more than 100 µg/mL; against B. subtilis [2], more than 100 µg/mL; in the assay on A. aerogenes, more than 100 µg/mL. The MIC against C. pelliculosa [3] is more than 100 µg/mL; in the assay on P. pullulans, more than 100 µg/mL; in the assay on S. typhosa, 50 µg/mL (≈ 207 µM); in assay [4], 50 µg/mL (≈ 207 µM); with C. IPS, more than 100 µg/mL; against T. Sp. Madison P42, more than 100 µg/mL.

With `Cc1ccc(S(=O)(=O)Cl)s1` [5-CH3], in the assay on S. typhosa, at 500 ppm the inhibition was 50%.

In the case of `O=S(=O)(Br)c1ccc(Cl)s1` [5-Cl, 5-Chloro-2-thiophenesulfonyl Bromide], the MIC against S. aureus [1] was 500 µg/mL; against E. coli it was 100 µg/mL; in the assay with C. albicans it was 100 µg/mL; in the assay on T. mentagrophytes, 100 µg/mL; against A. niger it was 100 µg/mL; against B. subtilis [2], 500 µg/mL. For the same compound, the MIC worked out at 500 µg/mL in the assay on A. aerogenes; 100 µg/mL in the assay on C. pelliculosa [3]; 100 µg/mL against P. pullulans; 500 µg/mL in [4]; 500 µg/mL against M. phlei; 100 µg/mL in the assay on R. nigricans. Further, the MIC in the assay with T. Sp. Madison P42 is 100 µg/mL.

On to `CCCCc1ccc(S(=O)(=O)Cl)s1` [5-butyl, reference compound], for which the MIC with E. coli was more than 500 µg/mL; with C. albicans, more than 500 µg/mL; against T. mentagrophytes it was 500 µg/mL (≈ 2090 µM); in the assay with A. niger, more than 500 µg/mL; in the assay with A. aerogenes, more than 500 µg/mL; against P. pullulans, more than 500 µg/mL. Besides, the MIC with S. typhosa is more than 500 µg/mL. The inhibition at 500 ppm in the assay with S. aureus [5], in the assay with B. subtilis [6] and in the assay on C. pelliculosa [7] was 50% throughout.

Regarding `CCCCc1ccc(S(=O)(=O)Br)s1` [5-butyl], the MIC in the assay with S. aureus [1] was 500 µg/mL (≈ 1770 µM); in the assay with E. coli, 500 µg/mL (≈ 1770 µM); in the assay on C. albicans, 500 µg/mL (≈ 1770 µM); in the assay with T. mentagrophytes, 100 µg/mL (≈ 353 µM); in the assay with A. niger it was 100 µg/mL (≈ 353 µM); with B. subtilis [2], 100 µg/mL (≈ 353 µM). Moreover, the MIC amounted to 500 µg/mL (≈ 1770 µM) against A. aerogenes; 100 µg/mL (≈ 353 µM) with C. pelliculosa [3]; 100 µg/mL (≈ 353 µM) with P. pullulans; 500 µg/mL (≈ 1770 µM) in assay [4]; 100 µg/mL (≈ 353 µM) against R. nigricans; 100 µg/mL (≈ 353 µM) against T. Sp. Madison P42.

Regarding `O=S(=O)(Br)c1cccs1` [H, 2-Thiophenesulfonyl Bromide], the MIC in the assay on S. aureus [1] came out at 500 µg/mL; against E. coli, 100 µg/mL; in the assay with C. albicans, 100 µg/mL; with T. mentagrophytes, 100 µg/mL; in the assay with A. niger, 100 µg/mL; against B. subtilis [2], 100 µg/mL. Besides, the minimal inhibitory concentration (MIC) (against A. aerogenes; in the assay on C. pelliculosa [3]; with P. pullulans; in assay [4]; in the assay on M. phlei; with R. nigricans) was 100 µg/mL in each case. In the assay on T. Sp. Madison P42, this compound registered a minimum inhibitory concentration (MIC) of 100 µg/mL.

Take `O=S(=O)(Cl)c1cccs1` [H, 2-thiophenesulfonyl chloride, reference compound]: the MIC in the assay on S. aureus [1], with E. coli, with C. albicans, against T. mentagrophytes, in the assay on A. niger and in the assay on B. subtilis [2] was more than 500 µg/mL in each case. The MIC against A. aerogenes is more than 500 µg/mL; against C. pelliculosa [3], more than 500 µg/mL; in the assay on P. pullulans, more than 500 µg/mL; with S. typhosa, more than 500 µg/mL; in assay [4] it was more than 500 µg/mL; against M. phlei, 500 µg/mL. The minimum inhibitory concentration (MIC) with R. nigricans, against C. IPS and in the assay on T. Sp. Madison P42 was more than 500 µg/mL in each case.

By MIC is commonly meant the least concentration at which growth counts as inhibited. Lower therefore signals a more susceptible organism. As usually defined, the inhibition is the drop in the measured response relative to a control, in per cent. The low end stands for a weak effect, the high end for a strong effect.
